Blank lines part the entries; values can stand above or below the molecule they belong to. Calls of active or inactive are those of the source. The rule behind the calls is not given here.
Assays:
[1] = Cytotoxicity against human CEM-GXR cells infected with HIV1 NL4-3 assessed as cell viability measured after 3 days by Flowcytometry assay; assay type: cell-based; details: 72 h
[2] = system: Human immunodeficiency virus 1; assay: Antiviral activity against HIV1 NL4-3 infected in human CEM-GXR cells assessed as inhibition of viral replication at 1.25 to 10 uM measured after 3 days by Flowcytometry assay; assay type: functional, organism-based; details: dose 1.25-10 µM, time 3.0 day
[3] = system: Human immunodeficiency virus 1; assay: Antiviral activity against antiretroviral-resistant HIV1 2948 harboring protease G48V/L90M mutant infected in human CEM-GXR cells assessed as inhibition of viral replication measured after 3 days by Flowcytometry assay; assay type: functional, organism-based; details: Human immunodeficiency virus 1, 2948, CEM-GXR, 72 h
[4] = Anti-HIV activity against HIV1 3B infected in human PBMC assessed as inhibition of viral infection measured after 11 days by ELISA method; assay type: functional, cell-based; details: Human immunodeficiency virus 1, 3B, 264 h
[5] = system: Human immunodeficiency virus 1; assay: Antiviral activity against antiretroviral-resistant HIV1 11845 harboring integrase G140S/Q148H mutant infected in human CEM-GXR cells assessed as inhibition of viral replication measured after 3 days by Flowcytometry assay; assay type: functional, organism-based; details: Human immunodeficiency virus 1, 11845, CEM-GXR, 72 h
[6] = Cytotoxicity against human CEM-GXR cells infected with HIV1 NL4-3 assessed as cell viability at 10 uM measured after 72 hrs by Flowcytometry assay; assay type: cell-based
[7] = system: Human immunodeficiency virus 1; assay: Antiviral activity against wild type HIV1 NL4-3 infected in human CEM-GXR cells assessed as inhibition of viral replication measured after 3 days by Flowcytometry assay; assay type: functional, organism-based; details: Human immunodeficiency virus 1, NL4-3, CEM-GXR, 72 h
[8] = Cytotoxicity against human CEM-GXR cells infected with wild type HIV1 MVC-res harboring envelope V3 loop A19T/L20F/T22A/E25D/I26V mutant assessed as cell viability measured after 72 hrs by Flow cytometry assay; assay type: cell-based
[9] = system: Human immunodeficiency virus 1; assay: Anti-HIV activity against HIV1 Bal infected in human PBMC assessed as inhibition of viral infection measured after 11 days by ELISA method; assay type: functional, organism-based; details: Human immunodeficiency virus 1, Bal, 264 h
[10] = Therapeutic index, ratio of CC50 for human CEM-GXR cells infected with HIV1 443 harboring reverse transcriptase K103N/D67N/K70R/Y115F/Q151M/M184V/K219Q mutant to EC50 for HIV1 443 harboring reverse transcriptase K103N/D67N/K70R/Y115F/Q151M/M184V/K219Q mutant; assay type: toxicity; details: read-out: TI
[11] = Therapeutic index, ratio of CC50 for human CEM-GXR cells infected HIV1 2948 with harboring protease G48V/L90M mutant to EC50 for HIV1 2948 harboring protease G48V/L90M mutant infected in human CEM-GXR cells; assay type: toxicity, cell-based; details: read-out: TI
[12] = Therapeutic index, ratio of CC50 for human CEM-GXR cells infected with wild type HIV1 NL4-3 to EC50 for wild type HIV1 NL4-3 infected in human CEM-GXR cells; assay type: toxicity, cell-based; details: read-out: TI
[13] = Cytotoxicity against human CEM-GXR cells infected with wild type HIV1 2948 harboring protease G48V/L90M mutant assessed as cell viability measured after 72 hrs by Flow cytometry assay; assay type: cell-based
[14] = Therapeutic index, ratio of CC50 for human CEM-GXR cells infected with wild type HIV1 97USSN54 to EC50 for wild type HIV1 97USSN54 infected in human CEM-GXR cells; assay type: toxicity, cell-based; details: read-out: TI
[15] = Cytotoxicity against human CEM-GXR cells infected with wild type HIV1 443 harboring reverse transcriptase K103N/D67N/K70R/Y115F/Q151M/M184V/K219Q mutant assessed as cell viability measured after 72 hrs by Flow cytometry assay; assay type: cell-based
[16] = system: Human immunodeficiency virus 1; assay: Antiviral activity against antiretroviral-resistant HIV1 MVC-res harboring envelope V3 loop A19T/L20F/T22A/E25D/I26V mutant infected in human CEM-GXR cells assessed as inhibition of viral replication measured after 3 days by Flowcytometry assay; assay type: functional, organism-based
[17] = Cytotoxicity against human CEM-GXR cells infected with wild type HIV1 11845 harboring […] G140S/Q148H mutant assessed as cell viability measured after 72 hrs by Flow cytometry assay; assay type: cell-based
[18] = Cytotoxicity against human CEM-GXR cells infected with wild type HIV1 NL4-3 assessed as cell viability measured after 72 hrs by Flow cytometry assay; assay type: cell-based
[19] = Cytotoxicity against human CEM-GXR cells infected with wild type HIV1 97USSN54 assessed as cell viability measured after 72 hrs by Flow cytometry assay; assay type: cell-based
[20] = system: Human immunodeficiency virus 1; assay: Antiviral activity against HIV1 NL4-3 infected in human CEM-GXR cells assessed as inhibition of viral replication measured after 3 days by Flowcytometry assay; assay type: functional, organism-based; details: Human immunodeficiency virus 1, NL4-3, CEM-GXR, 72 h
[21] = system: Human immunodeficiency virus 1; assay: Antiviral activity against antiretroviral-resistant HIV1 443 harboring reverse transcriptase K103N/D67N/K70R/Y115F/Q151M/M184V/K219Q mutant infected in human CEM-GXR cells assessed as inhibition of viral replication measured after 3 days by Flowcytometry assay; assay type: functional, organism-based; details: Human immunodeficiency virus 1, 443, CEM-GXR, 72 h
[22] = system: Human immunodeficiency virus 1; assay: Antiviral activity against wild type HIV1 97USSN54 infected in human CEM-GXR cells assessed as inhibition of viral replication measured after 3 days by Flowcytometry assay; assay type: functional, organism-based; details: Human immunodeficiency virus 1, 97USSN54, CEM-GXR, 72 h
[23] = Therapeutic index, ratio of CC50 for human CEM-GXR cells infected with HIV1 11845 harboring integrase G140S/Q148H mutant to EC50 for HIV1 11845 harboring integrase G140S/Q148H mutant infected in human CEM-GXR cells; assay type: toxicity, cell-based; details: read-out: TI
[24] = Cytotoxicity against human PBMC cells assessed as cell viability measured after 11 days by Viacount assay; assay type: cell-based; details: time 11 day
[25] = Therapeutic index, ratio of CC50 for human CEM-GXR cells infected with HIV1 MVC-res harboring envelope V3 loop A19T/L20F/T22A/E25D/I26V mutant to EC50 for HIV1 MVC-res harboring envelope V3 loop A19T/L20F/T22A/E25D/I26V mutant infected in human CEM-GXR cells; assay type: toxicity, cell-based; details: read-out: TI
[26] = system: Human immunodeficiency virus 1; assay: Antiviral activity against HIV1 infected in HeLa cells assessed as decrease of multiply spliced RNA levels at 1.25 uM measured after 24 hrs by RT-qPCR method; assay type: functional, organism-based
[27] = system: Human immunodeficiency virus 1; assay: Antiviral activity against HIV1 infected in HeLa cells assessed as decrease of multiply spliced RNA levels at 5 uM measured after 24 hrs by RT-qPCR method; assay type: functional, organism-based
[28] = system: Human immunodeficiency virus 1; assay: Antiviral activity against HIV1 infected in HeLa cells assessed as decrease of singly spliced RNA levels at 5 uM measured after 24 hrs by RT-qPCR method; assay type: functional, organism-based
[29] = system: Human immunodeficiency virus 1; assay: Anti-HIV activity against HIV1 provirus infected in HeLa cells assessed as reduction of GAG production in presence of Doxycycline measured after 24 hrs by GFP flourescence based plate reader method; assay type: functional, organism-based
[30] = system: Human immunodeficiency virus 1; assay: Antiviral activity against HIV1 infected in HeLa cells assessed as decrease of unspliced RNA levels at 1.25 uM measured after 24 hrs by RT-qPCR method; assay type: functional, organism-based
HeLa = assay: Cytotoxicity against human HeLa cells infected with HIV1 assessed as cell viability upto 5 uM measured after 24 hrs by plate reader method; assay type: cell-based
[31] = system: Human immunodeficiency virus 1; assay: Antiviral activity against HIV1 infected in HeLa cells assessed as decrease of singly spliced RNA levels at 1.25 uM measured after 24 hrs by RT-qPCR method; assay type: functional, organism-based
[32] = system: Human immunodeficiency virus 1; assay: Antiviral activity against HIV1 infected in HeLa cells assessed as decrease of unspliced RNA levels at 5 uM measured after 24 hrs by RT-qPCR method; assay type: functional, organism-based
[33] = Cytotoxicity against human CEM-GXR cells infected with HIV1 NL4-3 assessed as cell viability at 1.25 to 10 uM measured after 3 days by Flowcytometry assay; assay type: cell-based; details: 72 h, dose 1.25-10 µM, time 3 day
[34] = system: Human immunodeficiency virus; assay: Antiviral activity against HIV; assay type: functional, organism-based; details: Human immunodeficiency virus 1

Structure (SMILES): O=C(Nc1nc2ccc([N+](=O)[O-])cc2s1)c1ccc([N+](=O)[O-])s1
EC50 [1]: 2.4 µM | Activity [2]: Active

Structure (SMILES): O=C(Nc1nc2c(Cl)cccc2s1)c1cnc(C(F)(F)F)s1
EC50 [3]: 1.17 µM | EC50 [4]: 1.93 µM | EC50 [5]: 0.96 µM | Activity [6]: Non-Toxic | EC50 [7]: 1.29 µM | CC50 at 72 h [8]: 95.7 µM | EC50 [9]: 0.24 µM | selectivity ratio [10]: 83 | selectivity ratio [11]: 82 | selectivity ratio [12]: 74 | CC50 at 72 h [13]: 95.7 µM | selectivity ratio [14]: 100 | CC50 at 72 h [15]: 95.7 µM | EC50 [16]: 0.97 µM | CC50 at 72 h [17]: 95.7 µM | CC50 at 72 h [18]: 95.7 µM | CC50 at 72 h [19]: 95.7 µM | EC50 [20]: 1.66 µM | EC50 [21]: 1.16 µM | EC50 [22]: 0.96 µM | selectivity ratio [23]: 101 | CC50 at 264 h [24]: 9.08 µM | selectivity ratio [25]: 99

EC50 [4]: 0.0055 µM | EC50 [7]: 0.03 µM | EC50 [9]: 0.0021 µM | EC50 [22]: 0.03 µM
Structure (SMILES): Nc1nc(=O)n([C@@H]2CS[C@H](CO)O2)cc1F [EMTRICITABINE]
selectivity ratio [12]: > 2940 | selectivity ratio [14]: > 3850 | CC50 at 72 h [18]: > 100 µM | CC50 at 72 h [19]: > 100 µM | CC50 at 264 h [24]: > 10 µM

Structure (SMILES): O=C(Nc1nc2ccc(C(F)(F)F)cc2s1)c1cnc(C(F)(F)F)s1
Activity [26]: Active | EC50 [3]: 0.23 µM | EC50 [4]: 0.74 µM | Activity [27]: inactive | EC50 [5]: 0.2 µM | EC50 [7]: 0.25 µM | CC50 at 72 h [8]: 12.1 µM | EC50 [9]: 0.25 µM | selectivity ratio [10]: 51 | selectivity ratio [11]: 52 | selectivity ratio [12]: 49 | CC50 at 72 h [13]: 12.1 µM | Activity [28]: inactive | selectivity ratio [14]: 68 | Activity [29]: Dose-Dependent Effect | CC50 at 72 h [15]: 12.1 µM | Activity [30]: Active | EC50 [16]: 0.22 µM | CC50 at 72 h [17]: 12.1 µM | CC50 at 72 h [18]: 12.1 µM | Activity (HeLa): Toxic | CC50 at 72 h [19]: 12.1 µM | EC50 [20]: 0.47 µM | EC50 [21]: 0.24 µM | EC50 [22]: 0.18 µM | Activity [31]: Active | Activity [32]: inactive | selectivity ratio [23]: 59 | CC50 at 264 h [24]: 2.51 µM | selectivity ratio [25]: 56

EC50 [20]: 3 µM
Structure (SMILES): N#Cc1ccc(C(=O)Nc2nc3c(Cl)cccc3s2)s1

Structure (SMILES): O=C(Nc1nc2ccc(OC(F)(F)F)cc2s1)c1ccc([N+](=O)[O-])s1
Activity [2]: Active | Activity [33]: Toxic

Structure (SMILES): O=C(Nc1nc2c(Cl)cccc2s1)c1ccc([N+](=O)[O-])s1
EC50 [1]: 5.5 µM | Activity [2]: Active

Structure (SMILES): O=C(Nc1cccc2ncccc12)c1ccc([N+](=O)[O-])s1
Activity [2]: inactive

Structure (SMILES): O=C(Nc1cnc2ccccc2c1)c1ccc([N+](=O)[O-])s1
Activity [2]: inactive

Structure (SMILES): O=C(Nc1nc2c(Cl)cccc2s1)c1cccs1
Activity [2]: inactive

Structure (SMILES): Cc1ccc(C(=O)Nc2nc3c(Cl)cccc3s2)s1
Activity [2]: inactive

Structure (SMILES): O=C(Nc1ccc(C(F)(F)F)cc1)c1ccc([N+](=O)[O-])s1
Activity [29]: inactive

Structure (SMILES): O=C(Nc1nc2cc(Br)ccc2s1)c1ccc([N+](=O)[O-])s1
Activity [2]: Active | Activity [33]: Toxic

Structure (SMILES): O=C(Nc1cncc2ccccc12)c1ccc([N+](=O)[O-])s1
Activity [2]: inactive

Structure (SMILES): O=C(Nc1nsc2ccc([N+](=O)[O-])cc12)c1ccc([N+](=O)[O-])s1
Activity [2]: inactive

Structure (SMILES): O=C(Nc1nc2c(Cl)cc(Cl)cc2s1)c1ccc([N+](=O)[O-])s1
Activity [2]: Active | Activity [33]: Toxic

Structure (SMILES): O=C(Nc1cccc2cccnc12)c1ccc([N+](=O)[O-])s1
Activity [2]: inactive

EC50 [20]: 5.5 µM
Structure (SMILES): O=C(Nc1nc2c(Cl)cccc2s1)c1ccc(C(F)(F)F)s1

Structure (SMILES): O=C(Nc1nc2ccc(C(F)(F)F)cc2s1)c1ccc([N+](=O)[O-])s1
EC50 [1]: 0.5 µM | Activity [2]: Active

Structure (SMILES): O=C(Nc1nc2ccc(Cl)cc2s1)c1ccc([N+](=O)[O-])s1
Activity [2]: Active | Activity [33]: Toxic

EC50 [34]: 0.5 µM
Structure (SMILES): O=[N+]([O-])c1ccc(/C=C/c2ccc3ccccc3n2)s1

— ChEMBL document CHEMBL4837270, “2-Trifluoromethylthiazole-5-carboxamides: Analogues of a Stilbene-Based Anti-HIV Agent that Impact HIV mRNA Processing” (ACS Med Chem Lett, 2021)
